Test results as given in patent US20250295724A1, “COMPOSITION OF MALUS NIEDZWETZKYANA DIECK AND PRUNUS CERASIFERA EHRHART AND USE THEREOF IN TERMS OF RESISTING ATHEROSCLEROSIS” (priority 2023, published 2025).
Marks after values point to notes of the source that are not given here.

Tests used:
[1] = tested on: high-fat diet induced ApoE-/-mice atherosclerosis model (aortic atherosclerotic plaque); assay: Treatment of atherosclerosis: aortic plaque area in high-fat diet induced ApoE-/- mice, samples given for 4 weeks after 17 weeks of modeling; type: in vivo
Excerpt: (§1) Wild type C57 mice were used as a normal control group, rosuvastatin was used as a positive drug, and the efficacy (i.e., treating effect) of the composition samples in resisting atherosclerosis was investigated in a high-fat diet induced ApoE-/-mice atherosclerosis model. An atherosclerosis model was established after 17 weeks of modeling, and a control group was fed with a common feed for 17 weeks. The sample administration group was continuously administered with the test samples for 4 weeks after 17 weeks of modeling, and thereafter the formation of aortic atherosclerotic plaque in the mice was observed, and the plaque area was measured after dissection to calculate the plaque percentage.
(§2) Wild type C57 mice were used as a normal control group, rosuvastatin and atorvastatin were used as positive drugs, and the efficacy (i.e., treating effect) of the composition mixed samples in resisting atherosclerosis was investigated in a high-fat diet induced ApoE-/-mice atherosclerosis model. An atherosclerosis model was established after 17 weeks of modeling, and a control group was fed with a common feed for 17 weeks. The sample administration group was continuously administered with the test samples for 4 weeks after 17 weeks of modeling, and thereafter the formation of aortic atherosclerotic plaque in the mice was observed, and the plaque area was measured after dissection to calculate the plaque percentage.
as §2, with “aspirin, clopidogrel, colchicine” for “rosuvastatin”, “probucol” for “atorvastatin”
as §1, with “the” for “the composition”
as §1, with “mice were dissected,” for “plaque area was measured after dissection”, “area (percentage).” for “percentage.”

[2] = tested on: high-fat diet induced ApoE-/-mice atherosclerosis model (aortic atherosclerotic plaque); assay: Prevention of atherosclerosis: aortic plaque area in high-fat diet induced ApoE-/- mice, samples given during 12 weeks of modeling; type: in vivo; conditions: dose 1.67 mg/kg
Excerpt: An atherosclerosis model (namely, model group) was established after 12 weeks of modeling, and a control group (namely normal group) was fed with a common feed for 12 weeks. […] An atherosclerosis model (namely, model group) was established after 12 weeks of modeling, and a control group (namely normal group) was fed with a common feed for 12 weeks.

[3] = Table 5, treatment, drug alone 1.67 mg/kg
[4] = Table 5, treatment, drug alone 3.33 mg/kg
[5] = Table 6, treatment, drug alone 83.5 mg/kg
[6] = Table 6, treatment, drug alone 16.7 mg/kg
[7] = Table 2, treatment, 4 weeks, dose 1.67 mg/kg
[8] = Table 4, treatment, 4 weeks, dose 1.67 mg/kg
[9] = Table 5, treatment, drug alone 0.83 mg/kg
[10] = Table 7, treatment, dose 1.67 mg/kg
[11] = Table 8, treatment, dose 1.67 mg/kg
[12] = Table 9, treatment, dose 1.67 mg/kg
[13] = Table 6, treatment, drug alone 0.167 mg/kg
[14] = Table 6, treatment, drug alone 12.5 mg/kg

For `CC(C)c1c(C(=O)Nc2ccccc2)c(-c2ccccc2)c(-c2ccc(F)cc2)n1CC[C@@H](O)C[C@@H](O)CC(=O)O` [atorvastatin], the “Inhibition rate compared to the model %” value [1, 3] was 18.76%, the Plaque area % [1, 3] was 32.99%* and the “Inhibition rate compared to the model %” value [1, 4] was 28.47%. It also gave a Plaque area % [1, 4] of 29.05%*.
With `CC(C)(Sc1cc(C(C)(C)C)c(O)c(C(C)(C)C)c1)Sc1cc(C(C)(C)C)c(O)c(C(C)(C)C)c1` [probucol] the “Inhibition rate compared to the model %” value [1, 5] was 21.91% and the Plaque area % [1, 5] was 35.25%*.
In the case of `CC(=O)Oc1ccccc1C(=O)O` [aspirin], the “Inhibition rate compared to the model %” value [1, 6] is reported as 33.74% and the Plaque area % [1, 6] is reported as 29.91%*.
`CC(C)c1nc(N(C)S(C)(=O)=O)nc(-c2ccc(F)cc2)c1/C=C/[C@@H](O)C[C@@H](O)CC(=O)O` [rosuvastain, rosuvastatin] was tested, and the “Inhibition rate compared to the model %” value ([2]; Table 1, prevention) was 36.61%, the Plaque area % ([2]; Table 1, prevention) was 20.93%** and the “Inhibition rate compared to the model %” value ([2]; Table 3, prevention) was 30.61%. For the same compound, the Plaque area % ([2]; Table 3, prevention) was 24.82%, the “Inhibition rate compared to the model %” value [1, 7] was 38.69% and the Plaque area % [1, 7] was 26.10%*. The “Inhibition rate compared to the model %” value [1, 8] was 34.77%, the Plaque area % [1, 8] was 25.87%** and the “Inhibition rate compared to the model %” value [1, 9] was 16.97%. The Plaque area % [1, 9] was 33.72%*, the “Inhibition rate compared to the model %” value [1, 3] was 31.40% and the Plaque area % [1, 3] was 27.86%*. The “Inhibition rate compared to the model %” value [1, 10] was 34.77%, the Plaque area % [1, 10] was 25.87%** and the “Inhibition rate compared to the model %” value [1, 11] was 38.69%. For the same compound, the Plaque area % [1, 11] was 26.10%*, the “Inhibition rate compared to the model %” value [1, 12] was 42.69% and the Plaque area % [1, 12] was 27.94%**.
With `COc1cc2c(c(OC)c1OC)-c1ccc(OC)c(=O)cc1[C@@H](NC(C)=O)CC2` [colchicine] the “Inhibition rate compared to the model %” value [1, 13] was 25.12% and the Plaque area % [1, 13] was 33.80%*.
With `COC(=O)[C@H](c1ccccc1Cl)N1CCc2sccc2C1` [clopidogrel] the “Inhibition rate compared to the model %” value [1, 14] was 32.76% and the Plaque area % [1, 14] was 30.35%*.
